# Source: US9352013B2, “Uses of bremelanotide in therapy for female sexual dysfunction” (Palatin Technologies, Inc., priority 2012, dated 2016)
# “Also recorded” adds a separate entry of the source. Read-outs that look alike come from different tables or passages of the source.
# Legend:
# female rats = details: cited from earlier work
# [1] = Pharmacokinetics of subcutaneous administration in healthy adult males; format: in vivo; details: male, human, plasma, sc, read-out: Median Tmax
# Source text: Results of Tmax values were compared between subcutaneous administration (SC) and intranasal (IN) administration of various doses of bremelanotide, as shown in FIG. 1.
# [2] = Example 1: adverse events and discontinuations; format: in vivo, human; details: for Adverse event leading to withdrawal: Flushing, subjects (%) / Adverse event leading to withdrawal: Hypertension, subjects (%) / Adverse event leading to withdrawal: Nausea, subjects (%) / Adverse event leading to withdrawal: Vomiting, subjects (%) / Adverse event: Any leading to withdrawal, subjects (%) / Adverse event: Any, subjects (%) / Adverse event: Flushing, subjects (%) / Adverse event: Headache, subjects (%) / Adverse event: Injection-site pain, subjects (%) / Adverse event: Injection-site pruritus, subjects (%) / Adverse event: Nausea, subjects (%) / Adverse event: Upper respiratory tract infection, subjects (%): double-blind treatment
# Description: A multi-centered, placebo-controlled, randomized, parallel group trial with fixed dose levels and designed to identify appropriate doses of bremelanotide administered by subcutaneous injection in premenopausal females with FSAD and/or HSDD, under the conditions of home use, was conducted. Subjects received a single dose of placebo (subject-blinded) in-clinic followed by 4 weeks of subject-blinded placebo treatment at home (subjects self-administered treatment as needed). Subjects who continued to qualify for the trial then received 2 single in-clinic doses of randomized treatment (double-blind; approximately one week apart), followed by 12 weeks of double-blind treatment at home (subjects self-administered treatment as needed).
# Bremelanotide was well-tolerated during the trial. The most common types of treatment-emergent adverse events reported more frequently in the bremelanotide arms were facial flushing, nausea, emesis and headache. The study dosed 395 patients. A total of 26 patients discontinued from the study based on preset blood pressure change criterion spread across all arms (N=26, Placebo: 6, bremelanotide arms—0.75 mg: 4, 1.25 mg: 9, 1.75 mg: 7). A total of 19 patients discontinued from the study based on adverse events spread across all arms (N=19, Placebo: 5, bremelanotide arms—0.75 mg: 2, 1.25 mg: 4, 1.75 mg: 8). The adverse events that most commonly lead to discontinuation (other than meeting the blood pressure criterion) were flushing, nausea and emesis. Based on a safety review by an independent Data Safety Monitoring Board, no significant safety issues or concerns were identified during the study. […] Adverse events during the double-blind treatment period are shown on Table 6 below.
# [3] = Phase 2 intranasal trials: plasma concentration after 10 mg intranasal dose; format: in vivo; details: female, human, inhaled or intranasal, premenopausal, 30 minutes post dosing
# Description: In the bremelanotide premenopausal arm, 42.5% of the subjects were discontinued due to hypertension, nausea, vomiting or myalgia. Subjects received a 10 mg intranasal dose of bremelanotide, with premenopausal subjects determined to have a mean plasma concentration of 88.5±51.9 ng/mL and a % CV of 58.6, and postmenopausal subjects determined to have a mean plasma concentration of 93.2±68.5 ng/mL and a % CV of 73.5. The minimum and maximum plasma concentration levels for all women at thirty minutes post dose range from 0.0 ng/mL to 207.0 ng/mL.
# In the intranasal study, premenopausal women self-administered a 10 mg intranasal dose.
# [4] = system: healthy adult female subjects; assay: Phase 1 dose escalation, subcutaneous: vaginal photoplethysmography (vaginal pulse amplitude); format: in vivo, human
# Description: In a double-blind, placebo-controlled, single dose, dose escalation Phase 1 study to determine the maximum tolerated dose in healthy adult female subjects, doses of from 0.3 to 5.0 mg (0.3, 1.0, 3.0 and 5.0 mg) of bremelanotide were administered by subcutaneous injection. However, this study specifically excluded women with a diagnosis of FSD, and thus could not determine an effective dose for treatment of FSD. The study did employ a measure of pharmacodynamic effect, defined as an increase of sexual arousal response in the presence of visual sexual stimulation as measured by vaginal blood flow with vaginal photoplethysmography (using a Geer gauge device), which measures vaginal pulse amplitude.
# [5] = system: women diagnosed with sexual arousal disorder; details: single intranasal dose of 20 mg; cited from earlier work
compound,measurement,setting,value
"CCCC[C@H](NC(C)=O)C(=O)N[C@H]1CC(=O)NCCCC[C@@H](C(=O)O)NC(=O)[C@H](Cc2c[nH]c3ccccc23)NC(=O)[C@H](CCCNC(=N)N)NC(=O)[C@@H](Cc2ccccc2)NC(=O)[C@H](Cc2c[nH]cn2)NC1=O [bremelanotide, Ac-Nle-cyclo(-Asp-His-D-Phe-Arg-Trp-Lys)-OH]",Effect on appetitive sexual behavior,female rats,selective pharmacological effect on appetitive sexual behavior was observed
same,Dopamine release in the medial preoptic area,female rats; subcutaneous injections,increasing dopamine release
same,Immediate-early gene product Fos in limbic and hypothalamic structures,female rats; subcutaneous injections,inducing
same,Tmax,[1],30 to 60 min
same,Patients discontinued based on adverse events,[2]; 0.75 mg SC,2
same,Patients discontinued on preset blood pressure change criterion,[2]; 0.75 mg SC,4
same,"Adverse event leading to withdrawal: Flushing, subjects (%)",[2]; 0.75 mg SC (N = 100),0
same,"Adverse event leading to withdrawal: Hypertension, subjects (%)",[2]; 0.75 mg SC (N = 100),2 (2%)
same,"Adverse event leading to withdrawal: Nausea, subjects (%)",[2]; 0.75 mg SC (N = 100),0
same,"Adverse event leading to withdrawal: Vomiting, subjects (%)",[2]; 0.75 mg SC (N = 100),0
same,"Adverse event: Any leading to withdrawal, subjects (%)",[2]; 0.75 mg SC (N = 100),2 (2%)
same,"Adverse event: Any, subjects (%)",[2]; 0.75 mg SC (N = 100),64 (64%)
same,"Adverse event: Flushing, subjects (%)",[2]; 0.75 mg SC (N = 100),17 (17%)
same,"Adverse event: Headache, subjects (%)",[2]; 0.75 mg SC (N = 100),9 (9%)
same,"Adverse event: Injection-site pain, subjects (%)",[2]; 0.75 mg SC (N = 100),6 (6%)
same,"Adverse event: Injection-site pruritus, subjects (%)",[2]; 0.75 mg SC (N = 100),4 (4%)
same,"Adverse event: Nausea, subjects (%)",[2]; 0.75 mg SC (N = 100),18 (18%)
same,"Adverse event: Upper respiratory tract infection, subjects (%)",[2]; 0.75 mg SC (N = 100),8 (8%)
same,Patients discontinued based on adverse events,[2]; 1.25 mg SC,4
same,Patients discontinued on preset blood pressure change criterion,[2]; 1.25 mg SC,9
same,"Adverse event leading to withdrawal: Flushing, subjects (%)",[2]; 1.25 mg SC (N = 99),1 (1%)
same,"Adverse event leading to withdrawal: Hypertension, subjects (%)",[2]; 1.25 mg SC (N = 99),0
same,"Adverse event leading to withdrawal: Nausea, subjects (%)",[2]; 1.25 mg SC (N = 99),0
same,"Adverse event leading to withdrawal: Vomiting, subjects (%)",[2]; 1.25 mg SC (N = 99),1 (1%)
same,"Adverse event: Any leading to withdrawal, subjects (%)",[2]; 1.25 mg SC (N = 99),4 (4%)
same,"Adverse event: Any, subjects (%)",[2]; 1.25 mg SC (N = 99),61 (62%)
same,"Adverse event: Flushing, subjects (%)",[2]; 1.25 mg SC (N = 99),14 (14%)
same,"Adverse event: Headache, subjects (%)",[2]; 1.25 mg SC (N = 99),9 (9%)
same,"Adverse event: Injection-site pain, subjects (%)",[2]; 1.25 mg SC (N = 99),6 (6%)
same,"Adverse event: Injection-site pruritus, subjects (%)",[2]; 1.25 mg SC (N = 99),4 (4%)
same,"Adverse event: Nausea, subjects (%)",[2]; 1.25 mg SC (N = 99),22 (22%)
same,"Adverse event: Upper respiratory tract infection, subjects (%)",[2]; 1.25 mg SC (N = 99),5 (5%)
same,Patients discontinued based on adverse events,[2]; 1.75 mg SC,8
same,Patients discontinued on preset blood pressure change criterion,[2]; 1.75 mg SC,7
same,"Adverse event leading to withdrawal: Flushing, subjects (%)",[2]; 1.75 mg SC (N = 98),1 (1%)
same,"Adverse event leading to withdrawal: Hypertension, subjects (%)",[2]; 1.75 mg SC (N = 98),1 (1%)
same,"Adverse event leading to withdrawal: Nausea, subjects (%)",[2]; 1.75 mg SC (N = 98),3 (3%)
same,"Adverse event leading to withdrawal: Vomiting, subjects (%)",[2]; 1.75 mg SC (N = 98),3 (3%)
same,"Adverse event: Any leading to withdrawal, subjects (%)",[2]; 1.75 mg SC (N = 98),8 (8%)
same,"Adverse event: Any, subjects (%)",[2]; 1.75 mg SC (N = 98),67 (68%)
same,"Adverse event: Flushing, subjects (%)",[2]; 1.75 mg SC (N = 98),17 (17%)
same,"Adverse event: Headache, subjects (%)",[2]; 1.75 mg SC (N = 98),14 (14%)
same,"Adverse event: Injection-site pain, subjects (%)",[2]; 1.75 mg SC (N = 98),7 (7%)
same,"Adverse event: Injection-site pruritus, subjects (%)",[2]; 1.75 mg SC (N = 98),6 (6%)
same,"Adverse event: Nausea, subjects (%)",[2]; 1.75 mg SC (N = 98),24 (24%)
same,"Adverse event: Upper respiratory tract infection, subjects (%)",[2]; 1.75 mg SC (N = 98),4 (4%)
same,Tolerability during the trial,[2]; 0.75-1.75 mg SC,generally well tolerated
same,Serious adverse events related to treatment,[2]; Example 1 study,none were considered related; also recorded: no serious adverse events
same,Cmax at 30 min,"[3]; read-out: Cmax / plasma concentration, mean",88.5 ± 51.9 ng/mL
same,Cmax at 30 min,"[3]; read-out: Cmax, maximum",207 ng/mL
same,Cmax at 30 min,"[3]; read-out: Cmax, median",81.1 ng/mL
same,Pharmacodynamic effect (vaginal pulse amplitude with visual sexual stimulation),"[4]; 0.3 or 1.0 mg SC, compared to placebo or baseline",no apparent pharmacodynamic effect
same,Pharmacodynamic effect (vaginal pulse amplitude with visual sexual stimulation),[4]; 3 and 5 mg SC,statistically significant pharmacodynamic effect
same,Subcutaneous dose at which a pharmacodynamics effect was seen,[4]; normal female volunteers,≥ 3 mg
same,Vaginal pulse amplitude measures compared to placebo,[5],without statistically relevant differences
